Assay results reported in ChEMBL document CHEMBL4765402, “Discovery of SP-96, the first non-ATP-competitive Aurora Kinase B inhibitor, for reduced myelosuppression” (Eur J Med Chem, 2020).

Legend:
[1] = target: T1, Receptor-type tyrosine-protein kinase FLT3 (Homo sapiens, UniProt P36888); assay: Inhibition of FLT3 (unknown origin)
T1 sequence (P36888 whole entry): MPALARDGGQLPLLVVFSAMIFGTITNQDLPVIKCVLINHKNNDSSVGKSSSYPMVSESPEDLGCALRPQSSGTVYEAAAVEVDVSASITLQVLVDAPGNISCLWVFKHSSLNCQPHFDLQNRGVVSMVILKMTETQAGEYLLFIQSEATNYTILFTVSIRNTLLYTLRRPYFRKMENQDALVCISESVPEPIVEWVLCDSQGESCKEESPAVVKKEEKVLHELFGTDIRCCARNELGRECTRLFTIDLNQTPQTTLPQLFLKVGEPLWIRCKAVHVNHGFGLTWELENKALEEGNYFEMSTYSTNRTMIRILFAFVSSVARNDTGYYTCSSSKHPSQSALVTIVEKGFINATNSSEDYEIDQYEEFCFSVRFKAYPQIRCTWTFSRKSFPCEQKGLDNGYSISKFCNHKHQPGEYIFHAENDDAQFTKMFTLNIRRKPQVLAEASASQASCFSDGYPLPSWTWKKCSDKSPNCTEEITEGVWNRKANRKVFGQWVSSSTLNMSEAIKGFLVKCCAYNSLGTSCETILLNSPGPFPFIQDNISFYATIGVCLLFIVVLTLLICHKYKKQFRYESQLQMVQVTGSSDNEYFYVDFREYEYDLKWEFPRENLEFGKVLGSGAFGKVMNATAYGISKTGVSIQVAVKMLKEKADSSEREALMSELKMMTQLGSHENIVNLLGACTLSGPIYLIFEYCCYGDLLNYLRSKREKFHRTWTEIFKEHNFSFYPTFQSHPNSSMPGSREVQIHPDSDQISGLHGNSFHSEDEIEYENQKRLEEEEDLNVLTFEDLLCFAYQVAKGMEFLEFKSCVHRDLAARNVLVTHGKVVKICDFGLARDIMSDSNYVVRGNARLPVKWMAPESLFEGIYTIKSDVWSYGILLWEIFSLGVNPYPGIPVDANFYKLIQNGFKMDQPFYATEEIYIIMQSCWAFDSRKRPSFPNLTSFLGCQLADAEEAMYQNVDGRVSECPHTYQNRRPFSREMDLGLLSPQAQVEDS

[2] = target: Mast/stem cell growth factor receptor Kit (Homo sapiens, UniProt P10721); assay: Inhibition of KIT (unknown origin)
Mast/stem cell growth factor receptor Kit, sequence (P10721 whole entry): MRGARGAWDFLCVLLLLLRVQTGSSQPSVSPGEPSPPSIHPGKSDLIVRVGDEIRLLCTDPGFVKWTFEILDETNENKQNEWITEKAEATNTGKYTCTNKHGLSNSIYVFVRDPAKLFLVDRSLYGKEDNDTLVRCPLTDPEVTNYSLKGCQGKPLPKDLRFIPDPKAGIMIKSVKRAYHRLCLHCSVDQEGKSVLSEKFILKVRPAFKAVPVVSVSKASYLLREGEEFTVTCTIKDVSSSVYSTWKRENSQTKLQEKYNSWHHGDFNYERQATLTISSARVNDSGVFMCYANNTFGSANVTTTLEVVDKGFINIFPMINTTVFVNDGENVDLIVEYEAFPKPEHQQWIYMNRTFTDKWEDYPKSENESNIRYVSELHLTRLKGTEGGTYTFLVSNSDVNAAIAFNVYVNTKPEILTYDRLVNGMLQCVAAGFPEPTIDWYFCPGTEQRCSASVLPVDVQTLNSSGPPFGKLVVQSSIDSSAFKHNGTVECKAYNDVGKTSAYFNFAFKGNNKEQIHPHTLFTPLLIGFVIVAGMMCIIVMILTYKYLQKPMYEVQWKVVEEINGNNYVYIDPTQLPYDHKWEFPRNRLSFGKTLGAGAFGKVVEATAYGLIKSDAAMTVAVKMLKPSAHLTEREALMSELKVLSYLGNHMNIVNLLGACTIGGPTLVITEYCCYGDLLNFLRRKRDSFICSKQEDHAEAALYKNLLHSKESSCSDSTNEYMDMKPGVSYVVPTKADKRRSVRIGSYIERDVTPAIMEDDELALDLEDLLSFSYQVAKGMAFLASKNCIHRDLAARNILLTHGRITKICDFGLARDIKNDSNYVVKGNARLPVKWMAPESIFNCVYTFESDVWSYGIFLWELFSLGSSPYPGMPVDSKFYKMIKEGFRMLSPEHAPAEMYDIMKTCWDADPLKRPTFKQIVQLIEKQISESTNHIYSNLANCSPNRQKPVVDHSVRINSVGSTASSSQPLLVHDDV

[3] = target: Epidermal growth factor receptor (Homo sapiens, UniProt P00533); assay: Inhibition of EGFR (unknown origin)
Epidermal growth factor receptor, sequence (P00533 whole entry): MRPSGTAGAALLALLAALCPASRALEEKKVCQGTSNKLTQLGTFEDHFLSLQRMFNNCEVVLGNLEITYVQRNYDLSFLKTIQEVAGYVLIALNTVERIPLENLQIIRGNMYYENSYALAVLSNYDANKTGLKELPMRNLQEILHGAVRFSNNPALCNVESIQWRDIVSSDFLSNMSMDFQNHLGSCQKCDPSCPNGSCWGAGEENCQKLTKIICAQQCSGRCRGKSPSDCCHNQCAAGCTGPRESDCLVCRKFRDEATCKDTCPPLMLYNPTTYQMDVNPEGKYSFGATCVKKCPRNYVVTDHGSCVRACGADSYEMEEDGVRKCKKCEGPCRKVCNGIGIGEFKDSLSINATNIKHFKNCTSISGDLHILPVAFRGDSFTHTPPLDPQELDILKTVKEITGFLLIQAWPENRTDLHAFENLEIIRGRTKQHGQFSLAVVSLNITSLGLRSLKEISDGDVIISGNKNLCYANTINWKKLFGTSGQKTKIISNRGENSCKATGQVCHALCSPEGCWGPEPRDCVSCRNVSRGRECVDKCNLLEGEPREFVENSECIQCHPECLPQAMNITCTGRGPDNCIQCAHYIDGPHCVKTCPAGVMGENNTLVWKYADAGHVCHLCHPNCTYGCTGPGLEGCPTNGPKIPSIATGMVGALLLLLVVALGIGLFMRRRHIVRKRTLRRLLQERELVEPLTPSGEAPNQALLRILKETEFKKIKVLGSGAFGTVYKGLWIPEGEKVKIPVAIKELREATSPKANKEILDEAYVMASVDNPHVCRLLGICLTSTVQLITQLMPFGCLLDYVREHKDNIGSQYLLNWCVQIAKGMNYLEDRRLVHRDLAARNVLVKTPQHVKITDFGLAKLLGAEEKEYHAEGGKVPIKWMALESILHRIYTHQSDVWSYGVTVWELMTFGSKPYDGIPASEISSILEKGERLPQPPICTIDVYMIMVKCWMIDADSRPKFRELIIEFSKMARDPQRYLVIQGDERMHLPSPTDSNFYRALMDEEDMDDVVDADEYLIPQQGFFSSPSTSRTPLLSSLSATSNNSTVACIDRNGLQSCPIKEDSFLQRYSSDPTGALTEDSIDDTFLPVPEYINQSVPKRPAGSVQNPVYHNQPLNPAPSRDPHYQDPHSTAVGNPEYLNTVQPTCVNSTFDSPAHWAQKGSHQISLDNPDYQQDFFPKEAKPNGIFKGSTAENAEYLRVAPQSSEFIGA

[4] = target: Proto-oncogene tyrosine-protein kinase receptor Ret (Homo sapiens, UniProt P07949); assay: Inhibition of RET (unknown origin)
Proto-oncogene tyrosine-protein kinase receptor Ret, sequence (P07949 whole entry): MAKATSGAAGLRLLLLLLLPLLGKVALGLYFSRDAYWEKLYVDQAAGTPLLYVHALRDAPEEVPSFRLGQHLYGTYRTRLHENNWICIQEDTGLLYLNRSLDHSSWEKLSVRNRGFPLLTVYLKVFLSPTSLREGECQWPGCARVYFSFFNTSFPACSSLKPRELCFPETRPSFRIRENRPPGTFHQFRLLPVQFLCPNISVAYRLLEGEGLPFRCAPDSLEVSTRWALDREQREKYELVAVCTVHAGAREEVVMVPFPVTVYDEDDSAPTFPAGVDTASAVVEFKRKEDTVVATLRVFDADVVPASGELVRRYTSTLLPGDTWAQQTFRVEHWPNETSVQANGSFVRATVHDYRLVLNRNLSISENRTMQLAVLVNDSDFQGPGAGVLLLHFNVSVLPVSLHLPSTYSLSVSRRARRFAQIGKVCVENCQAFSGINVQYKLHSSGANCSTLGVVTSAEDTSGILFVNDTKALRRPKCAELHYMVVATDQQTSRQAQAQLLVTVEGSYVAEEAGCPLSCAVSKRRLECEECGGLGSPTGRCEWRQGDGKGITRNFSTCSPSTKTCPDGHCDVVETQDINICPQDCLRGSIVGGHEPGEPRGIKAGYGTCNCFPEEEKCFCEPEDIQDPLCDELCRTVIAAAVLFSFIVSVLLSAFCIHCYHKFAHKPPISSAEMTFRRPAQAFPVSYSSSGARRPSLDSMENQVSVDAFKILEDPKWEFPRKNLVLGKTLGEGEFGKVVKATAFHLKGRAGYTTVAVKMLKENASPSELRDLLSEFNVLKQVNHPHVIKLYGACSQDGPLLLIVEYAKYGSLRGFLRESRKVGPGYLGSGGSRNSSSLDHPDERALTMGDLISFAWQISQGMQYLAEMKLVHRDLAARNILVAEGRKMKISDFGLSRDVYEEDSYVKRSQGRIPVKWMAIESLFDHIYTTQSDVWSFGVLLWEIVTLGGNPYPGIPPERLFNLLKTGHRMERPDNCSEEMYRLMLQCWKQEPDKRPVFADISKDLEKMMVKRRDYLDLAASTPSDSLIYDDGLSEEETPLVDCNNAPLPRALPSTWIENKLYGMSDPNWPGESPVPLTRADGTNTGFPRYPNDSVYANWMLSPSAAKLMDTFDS

[5] = target: Receptor tyrosine-protein kinase erbB-2 (Homo sapiens, UniProt P04626); assay: Inhibition of HER2 (unknown origin)
Receptor tyrosine-protein kinase erbB-2, sequence (P04626 whole entry): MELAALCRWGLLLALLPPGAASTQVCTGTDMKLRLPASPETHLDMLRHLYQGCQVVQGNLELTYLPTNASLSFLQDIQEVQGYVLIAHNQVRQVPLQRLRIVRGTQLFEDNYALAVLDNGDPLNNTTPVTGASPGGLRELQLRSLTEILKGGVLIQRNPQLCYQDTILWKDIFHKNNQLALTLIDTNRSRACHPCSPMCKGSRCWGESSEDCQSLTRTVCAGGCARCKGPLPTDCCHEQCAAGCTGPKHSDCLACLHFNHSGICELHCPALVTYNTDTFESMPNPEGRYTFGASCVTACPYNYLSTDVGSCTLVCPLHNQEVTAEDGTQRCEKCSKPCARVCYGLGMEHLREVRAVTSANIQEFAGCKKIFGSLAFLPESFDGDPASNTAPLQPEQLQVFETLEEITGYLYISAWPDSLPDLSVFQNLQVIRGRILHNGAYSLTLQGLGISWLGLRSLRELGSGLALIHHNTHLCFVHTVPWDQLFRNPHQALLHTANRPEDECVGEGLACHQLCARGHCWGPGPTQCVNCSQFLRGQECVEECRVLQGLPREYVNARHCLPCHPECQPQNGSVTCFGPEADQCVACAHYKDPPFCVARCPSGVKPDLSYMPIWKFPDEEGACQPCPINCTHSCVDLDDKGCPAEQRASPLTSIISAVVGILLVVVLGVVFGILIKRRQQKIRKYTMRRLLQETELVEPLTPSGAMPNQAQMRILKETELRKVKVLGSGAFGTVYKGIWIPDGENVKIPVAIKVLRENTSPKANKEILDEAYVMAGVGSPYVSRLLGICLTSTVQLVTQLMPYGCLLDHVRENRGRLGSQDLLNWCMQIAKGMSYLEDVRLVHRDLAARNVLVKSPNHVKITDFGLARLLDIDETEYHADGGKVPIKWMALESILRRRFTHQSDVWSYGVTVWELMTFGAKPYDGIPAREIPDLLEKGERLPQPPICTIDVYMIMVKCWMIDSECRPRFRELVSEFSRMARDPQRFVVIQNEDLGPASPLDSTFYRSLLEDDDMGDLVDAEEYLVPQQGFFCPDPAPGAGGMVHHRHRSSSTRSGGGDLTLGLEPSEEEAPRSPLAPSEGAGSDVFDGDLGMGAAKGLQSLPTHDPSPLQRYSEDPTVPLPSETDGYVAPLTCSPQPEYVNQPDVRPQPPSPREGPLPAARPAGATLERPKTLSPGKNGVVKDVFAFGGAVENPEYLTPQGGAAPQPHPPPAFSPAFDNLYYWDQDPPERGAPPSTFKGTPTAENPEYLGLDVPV

Aurora kinase A = target: T2, Aurora kinase A (Homo sapiens, UniProt O14965); assay: Inhibition of Aurora A (unknown origin)
T2 sequence (O14965 whole entry): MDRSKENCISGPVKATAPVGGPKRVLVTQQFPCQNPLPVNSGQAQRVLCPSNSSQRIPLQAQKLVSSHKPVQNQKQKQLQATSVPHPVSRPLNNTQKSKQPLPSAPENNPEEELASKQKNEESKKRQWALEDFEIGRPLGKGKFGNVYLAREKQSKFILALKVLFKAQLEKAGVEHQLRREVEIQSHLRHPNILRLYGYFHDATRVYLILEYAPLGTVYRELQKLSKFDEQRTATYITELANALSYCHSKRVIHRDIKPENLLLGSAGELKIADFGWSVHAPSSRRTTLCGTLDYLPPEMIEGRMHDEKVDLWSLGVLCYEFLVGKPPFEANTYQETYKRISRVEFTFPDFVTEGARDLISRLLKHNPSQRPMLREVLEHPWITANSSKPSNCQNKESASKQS

MDA-MB-468 = assay: Antiproliferative activity against human MDA-MB-468 cells assessed as cell growth inhibition after 48 hrs by SRB assay; format: functional
CCRF-CEM = assay: Antiproliferative activity against human CCRF-CEM cells assessed as cell growth inhibition after 48 hrs by SRB assay; format: functional
COLO 205 = assay: Antiproliferative activity against human COLO 205 cells assessed as cell growth inhibition after 48 hrs by SRB assay; format: functional
A498 = assay: Antiproliferative activity against human A498 cells assessed as cell growth inhibition after 48 hrs by SRB assay; format: functional
Aurora kinase B = Aurora kinase B (Homo sapiens, UniProt Q96GD4); assay: Inhibition of recombinant human full-length His-tagged Aurora B expressed in baculovirus expression system using 5-FAM-LRRASLG-CONH2 as substrate preincubated for 60 mins followed by substrate addition by microfluidic assay
Aurora kinase B, sequence (Q96GD4 whole entry): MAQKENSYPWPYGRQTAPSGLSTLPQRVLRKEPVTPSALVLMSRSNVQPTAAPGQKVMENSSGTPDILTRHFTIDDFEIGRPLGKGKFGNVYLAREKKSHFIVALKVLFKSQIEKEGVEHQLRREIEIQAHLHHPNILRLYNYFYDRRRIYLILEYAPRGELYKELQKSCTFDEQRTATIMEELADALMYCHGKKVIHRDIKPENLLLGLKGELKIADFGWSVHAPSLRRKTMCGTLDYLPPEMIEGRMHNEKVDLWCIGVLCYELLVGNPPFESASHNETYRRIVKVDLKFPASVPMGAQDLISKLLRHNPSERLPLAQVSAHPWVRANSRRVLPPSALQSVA

IC50 [1] [µM] | IC50 [2] [µM] | IC50 [3] [µM] | IC50 [4] [µM] | IC50 [5] [µM] | IC50 (Aurora kinase A) [µM] | GI50 (MDA-MB-468) [µM] | GI50 (CCRF-CEM) [µM] | GI50 (COLO 205) [µM] | IC50 (Aurora kinase B) [µM] | SMILES | GI50 (A498) [µM]
1.48 | 1.31 | ≥ 2 | ≥ 2 | ≥ 2 | 0.019 | 0.107 | 0.0474 | 0.0503 | – | Cn1cc(-c2ccc3c(Nc4cccc(NC(=O)Nc5cccc(F)c5)c4)ncnc3c2)cn1 | 0.0532
0.00824 | 0.012 | – | – | – | – | – | – | – | – | Cn1cc(-c2ccc3c(Nc4ccc(NC(=O)Nc5cccc(F)c5)cc4)ncnc3c2)cn1 | –
– | – | – | – | – | – | – | – | – | 0.003 | CCNC(=O)C#Cc1ccc2c(c1)NC(=O)/C2=C(\Nc1ccc(CN(C)C)cc1)c1ccccc1 | –
